# Laboratory results reported in PMC8837603, “Lapcin, a potent dual topoisomerase I/II inhibitor discovered by soil metagenome guided total chemical synthesis” (Nature Communications, 2022).
# Entries after “also recorded” stand apart in the source; their conditions may differ.
# Key:
# Topo II = experiment: Enzyme concentration dependence, Topo II activity assay; format: biochemical; conditions: unlike known DNA intercalators; Supplementary Fig. 38
# Hela (Cervical) cells = experiment: cells; format: cell-based, human; conditions: cervical cancer; MTT, 48 h, 37 °C; DMEM + 10% FBS; 2,500 cells/well; absorbance 570 nm; n = 3 biologically independent
# Experimental: (§1) An MTT (2-(4,5-dimethylthiazol-2-yl)−2,5-diphenyltetrazolium bromide) assay was used to determine the cytotoxicity of lapcin towards diverse cancer cell lines. Lapcin was dissolved in DMSO to make a 3.2 mg/mL working solution. For each cancer line detailed in Supplementary Table 5, cells at 80-90% confluency were counted and seeded in 96-well, flat bottom microplates and incubated at 37 °C with a 5% CO2 atmosphere. Outer wells were unused to avoid edge effects. After adhering for 24 h, the medium was sterilely aspirated and replaced with 100 µL of fresh medium containing lapcin or a control compound serially diluted at concentrations ranging from 8,000 to 0.00382 ng/mL. After 48 h (37 °C, 5% CO2), the medium was carefully removed and 110 µL of freshly prepared MTT solution (10 µL of 5 mg/mL MTT in PBS (pH 7.4) premixed with 100 µL of complete medium) was added to each well. After 3 h at 37 °C with 5% CO2, 100 µL of solubilization solution (40% DMF, 16% SDS and 2% acetic acid in H2O) was added to each well and precipitated formazan crystals were allowed to dissolve for 4 h. The absorbance of each well was then measured at 570 nm using a Tecan microplate reader.
# Colo205 cells = experiment: cells; format: cell-based, human; conditions: colon cancer; MTT, 48 h, 37 °C; RPMI-1640 + 10% FBS; 2,500 cells/well; absorbance 570 nm; n = 3 biologically independent
# Experimental: as §1
# SW480 cells = experiment: cells; format: cell-based, human; conditions: colon cancer; MTT, 48 h, 37 °C; DMEM + 10% FBS; 10,000 cells/well; absorbance 570 nm; n = 3 biologically independent
# Experimental: as §1
# HCT116 cells = experiment: cells; format: cell-based, human; conditions: colon cancer; MTT, 48 h, 37 °C; DMEM + 10% FBS; 10,000 cells/well; absorbance 570 nm; n = 3 biologically independent
# Experimental: as §1
# NCI-H226 cells = experiment: cells; format: cell-based, human
# Experimental: as §1
# HT29 cells = experiment: cells; format: cell-based, human; conditions: colon cancer; MTT, 48 h, 37 °C; DMEM + 10% FBS; 2,500 cells/well; absorbance 570 nm; n = 3 biologically independent
# Experimental: as §1
# A549 cells = experiment: cells; format: cell-based, human; conditions: lung cancer; MTT, 48 h, 37 °C; DMEM + 10% FBS + NEAA; 2,500 cells/well; absorbance 570 nm; n = 3 biologically independent
# Experimental: as §1
# HCC1806 cells = experiment: cells; format: cell-based, human; conditions: breast cancer; MTT, 48 h, 37 °C; RPMI-1640 + 10% FBS; 2,500 cells/well; absorbance 570 nm; n = 3 biologically independent
# Experimental: as §1
# MCF 7 cells = experiment: cells; format: cell-based, human; conditions: breast cancer; MTT, 48 h, 37 °C; DMEM + 10% FBS; 8,000 cells/well; absorbance 570 nm; n = 3 biologically independent
# Experimental: as §1
# HEK293 cells = experiment: cells; format: cell-based, human; conditions: normal cell; MTT, 48 h, 37 °C; DMEM + 10% FBS; 5, 000 cells/well; absorbance 570 nm; n = 3 biologically independent
# Experimental: as §1
# NCI-H1299 cells = experiment: cells; format: cell-based, human; conditions: lung cancer; MTT, 48 h, 37 °C; RPMI-1640 + 10% FBS; 2,500 cells/well; absorbance 570 nm; n = 3 biologically independent
# Experimental: as §1
# U2OS (Bone) cells = experiment: cells; format: cell-based, human
# Experimental: as §1
# [1] = test system: Wheat germ Topoisomerase I; experiment: DNA intercalator assay / enzyme concentration dependence, Topo I; format: biochemical; conditions: unlike known DNA intercalators; supercoil pBR322, 30 min, 37 °C; two independent times
# Text: DNA intercalator assay: A commercial DNA unwinding assay kit (Inspiralis, UK) was used in this study with a slight modification. Ethidium bromide was used as intercalator positive control. The assay contains two steps: the first step is used to determine the minimum concentration of compounds that will inhibit the enzyme activity; the second step is used to determine whether compounds act as intercalator or inhibitor. Ethidium bromide was used as the intercalator positive control and supercoil pBR322 was used as the substrate. The assay mixture was set up on the ice. Briefly, the master mixture was prepared by adding 3 µL of […] wheat germ topoisomerase I assay buffer, 0.5 µL of 1 µg/µL supercoil pBR322, 1.5 uL serial diluted compounds (dissolved in DMSO). H2O was added to a final volume of 29 µL. Finally, 1 µL of 2 U/µL Wheat germ Topoisomerase I was added to the reaction mixture. The reaction was incubated for 30 minutes at 37℃. The reaction was stopped by added 20 µL of H2O, and 50 µL of butanol (water-saturated). The mixture was vortexed vigorously and centrifuged for 1 minute. The lower, aqueous layer was removed and added into a new tubes containing 50 µL STEB buffer and 40 µL of Chloroform/isoamyl alcohol (v:v, 24:1). The mixture was vortexed vigorously for 10 secs and centrifuge for 2 minutes. […]
# human cancer cell lines = experiment: MTT cell viability assay, whole cell line panel; format: cell-based
# Experimental: as §1
structure (smiles),measurement,setting,value
"CCCCCCCCCCCC(O)CC(=O)N[C@@H](C)C(=O)N[C@@H](CO)C(=O)N[C@@H](C)C(=O)Nc1ccc(-c2nc(-c3nc(C(=O)N[C@@H](CC(N)=O)C(=O)Nc4ccc(C(=O)Nc5ccc(C(=O)Nc6ccc(C(=O)O)cc6)c(O)c5OC(C)C)cc4)cs3)cs2)cc1 (stereo partly drawn) [Lapcin, 4-(4-(4-((2S)-4-amino-2-(2'-(4-((2S)-2-((2S)-3-hydroxy-2-((2S)-2-(3-hydroxytetradecanamido)propanamido)propanamido)propanamido)phenyl)-[2,4'-bithiazole]-4-carboxamido)-4-oxobutanamido)benzamido)-2-hydroxy-3-isopropoxybenzamido)benzoic acid]","dependence of activity on enzyme concentration, Topo II",Topo II,strong dependence on enzyme concentration
same,IC50,Hela (Cervical) cells,0.986 nM
same,IC50,Colo205 cells,0.504 nM
same,IC50,SW480 cells,37.2 nM
same,IC50,HCT116 cells,923 nM
same,"potency vs etoposide, NCI-H226",NCI-H226 cells; compared with etoposide,essentially equipotent
same,IC50,"NCI-H226 cells; lung cancer, MTT, 48 h, 37 °C, RPMI-1640 + 10% FBS, 10,000 cells/well, absorbance 570 nm, n = 3 biologically independent",241 nM
same,IC50,HT29 cells,0.516 nM
same,IC50,A549 cells,2.66 nM
same,IC50,HCC1806 cells,212 nM
same,IC50,MCF 7 cells,35.1 nM
same,IC50,HEK293 cells,48.4 nM
same,IC50,NCI-H1299 cells,0.0168 nM
same,IC50,"U2OS (Bone) cells; bone cancer, MTT, 48 h, 37 °C, DMEM + 10% FBS + NEAA, 2,500 cells/well, absorbance 570 nm, n = 3 biologically independent",1.29 nM
same,activity against U2OS in words,U2OS (Bone) cells; human bone osteosarcoma epithelial cell line U2OS,retained potent activity
same,"dependence of activity on enzyme concentration, Topo I",[1],strong dependence on enzyme concentration
same,difference in IC50 between non-cancerous HEK293 and most susceptible cell lines,"human cancer cell lines; Table 1 IC50s, therapeutic window",over 3 orders of magnitude
same,potency relative to etoposide in cell lines,human cancer cell lines; all cell lines except NCI-H226,more potent than the topoisomerase II inhibitor etoposide
same,cytotoxic potency (IC50) in words,"human cancer cell lines; breast, lung, colon, bone and cervical cancer cell lines, MTT, 48 h",nM to pM IC50s; also recorded: potent human cancer cell line toxin; also recorded: nM to pM (IC50) inhibitor
same,potency relative to camptothecin in cell lines,"human cancer cell lines; exception of HCT116, HCC1806 and NCI-H226",more potent than the topoisomerase I inhibitor camptothecin
same,correlation of activity with p53 expression,human cancer cell lines; reported p53 expression levels of the cell lines tested,general correlation between lapcin activity and reported p53 expression levels
